Measured values taken from patent US9243039B2, “Bipartite inhibitors of bacterial RNA polymerase: Sal-target-inhibitor/nucleoside-analog-inhibitor conjugates” (priority 2012, dated 2016).
Converted amounts (≈) assume the structure as drawn. *1 amine or outer side, *2 acyl side, *3 side chain or, on linkers, in order; H or OH if unused. Where a SMILES comes first, the peptide text is derived from it. Bridges are numbered along the chain shown (N, C = ends). [ ]: non-standard residue; d: D form. The star is where a group is joined. X4 = C[C@@H](Oc1ccc([C@H](N[*:1])C(=O)[*:2])cc1)[C@](O)(/C=C/C(=O)[*:3])CNCCCCCCNC(=O)OC(C)(C)C; X5 = C[C@@H](Oc1ccc([C@H](N[*:1])C(=O)[*:2])cc1)[C@](O)(/C=C/C(=O)[*:3])CNCCCNC(=O)OC(C)(C)C; X2 = CCCCOC[C@@](O)(/C=C/C(=O)[*:3])[C@@H](C)Oc1ccc([C@H](N[*:1])C(=O)[*:2])cc1; X1 = C[C@@H](Oc1ccc([C@H](N[*:1])C(=O)[*:2])cc1)[C@](O)(/C=C/C(=O)[*:3])CBr; Pentanoyl(2R-Me,3R-OH,4-Me) = CC(C)[C@@H](O)[C@@H](C)C(=O)*; d(aIle) = CC[C@H](C)[C@@H](N)C(=O)O; d(aThr) = C[C@@H](O)[C@@H](N)C(=O)O; NMeF = CN[C@@H](Cc1ccccc1)C(=O)O

Columns and labels:
Sal-resistant mutants = conditions: Ebright et al., WO/2012/129173; cited from earlier work
human RNAP I/II/III = assay: Radiochemical assay with human RNAP I, II and III (HeLaScribe nuclear extract); assay type: biochemical
Method: Radiochemical assays with human RNAP I, II, and III were performed essentially as described [Sawadogo and Roeder, Cell 43:165-75, 1985]. Reaction mixtures contained (20 μl): 0-100 μM test compound, 8 U HeLaScribe Nuclear Extract (Promega, Inc.), 1 μg human placental DNA (Sigma-Aldrich), 400 μM ATP, 400 μM [α^32P]UTP (0.11 Bq/fmol), 400 μM CTP, 400 μM GTP, 50 mM Tris-HCl, pH 8.0, 7 mM HEPES-NaOH, 70 mM (NH4)2SO4, 50 mM KCl, 12 mM MgCl2, 5 mM DTT, 0.1 mM EDTA, 0.08 mM phenylmethylsulfonyl fluoride, and 16% glycerol. Reaction components other than DNA and NTPs were pre-incubated 10 min at 30° C., DNA was added and reaction mixtures were incubated 15 min at 30° C., NTPs were added and reaction mixtures were incubated 60 min at 30° C. Reaction mixtures were spotted on DE81 filter discs (Whatman, Inc.; pre-wetted with water) and incubated 1 min at room temperature. Filters were washed with 3×3 ml Na2HPO4, 2×3 ml water, and 3 ml ethanol, using a filter manifold (Hoefer, Inc.). Filters were placed in scintillation vials containing 10 ml Scintiverse BD Cocktail (Thermo Fisher, Inc.), and radioactivity was quantified by scintillation counting (LS6500; Beckman-Coulter, Inc.).
(§1) Half-maximal inhibitory concentrations (IC50s) were calculated by non-linear regression in SigmaPlot (SPSS, Inc.).

[1] = tested on: Enterobacter cloacae ATCC 13047; assay: Antibacterial activity, broth microdilution, Enterobacter cloacae; assay type: cell-based; conditions: Enterobacter cloacae, ATCC13047; minimal concentration resulting in ≧50% inhibition of bacterial growth
Text: (§2) Antibacterial activity was quantified using broth microdilution [Clinical and Laboratory Standards Institute (CLSUNCCLS), Methods for Dilution Antimicrobial Susceptibility Tests for Bacteria That Grow Aerobically; Approved Standard, Eighth Edition. CLIS Document M07-A8 (CLIS, Wayne Pa.), 2009]. Assays with Enterobacter cloacae ATCC 13047, Pseudomonas aeruginosa ATCC10145, and Escherichia coli D21f2to1C, employed a starting cell density of 2-5×10^5 cfu/ml, Mueller Hinton II cation adjusted broth (BD Biosciences, Inc.), and an air atmosphere. Assays with Haemophilus influenzae ATCC49247 and Neisseria gonorrhoeae ATCC 19424 employed a starting cell density of 2-5×10^5 cfu/ml, Haemophilus Test Medium broth (Barry et al., 1993) and a 5% CO2/95% air atmosphere. MIC50 was defined as the minimal concentration resulting in ≧50% inhibition of bacterial growth.

[2] = tested on: Escherichia coli D21f2toIC; assay: Antibacterial activity, broth microdilution, Escherichia coli D21f2tolC; assay type: cell-based; conditions: for MIC50: Escherichia coli, D21F2TOIC, read-out: MIC50 Escherichia coli D21f2toIC
Text: as §2

Escherichia coli RNAP = Escherichia coli RNAP (Escherichia coli, UniProt P0A8T7+P0A8V2); assay: Fluorescence-detected RNAP assay, Escherichia coli RNAP; assay type: biochemical; conditions: for IC50: fluorescent-detected RNAP assays
Method: Fluorescence-detected RNAP assays with Escherichia coli RNAP were performed by a modification of the procedure of Kuhlman et al., 2004 [Kuhlman et al., Anal. Biochem. 324:183-190, 2004]. Reaction mixtures contained (20 μl): […] test compound, 75 nM Escherichia coli RNAP […] holoenzyme, 20 nM 384 by DNA fragment containing the bacteriophage T4 N25 promoter, 100 μM ATP, 100 μM GTP, 100 μM UTP, 100 μM CTP, 50 mM Tris-HCl, pH 8.0, 100 mM KCl, 10 mM MgCl2, 1 mM DTT, 10 μg/ml bovine serum albumin, and 5.5% glycerol. Reaction components other than DNA and NTPs were pre-incubated for 10 min at 37° C. Reactions were carried out by addition of DNA and incubation for 5 min at 37° C., followed by addition of NTPs and incubation for 60 min at 37° C. DNA was removed by addition of 1 μl 5 mM CaCl2 and 2 U DNaseI (Ambion, Inc.), followed by incubation for 90 min at 37° C. RNA was quantified by addition of 100 μl RiboGreen RNA Quantitation Reagent (Invitrogen, Inc.; 1:500 dilution in Tris-HCl, pH 8.0, 1 mM EDTA), followed by incubation for 10 min at 25° C., followed by measurement of fluorescence intensity [excitation wavelength=485 nm and emission wavelength=535 nm; QuantaMaster QM1 spectrofluorometer (PTI, Inc.)].
as §1

Vero E6 ATCC CRL1586 = assay: Cytotoxicity to mammalian cells in culture (CellTiter96); assay type: cell-based; conditions: mammalian cells in culture
Text: MICs for mammalian cells (Vero E6) in culture were quantified using CellTiter96 assay (Promega. Inc.; procedures as specified by the manufacturer). Screening data for SalA and SalB (compounds 1 and 2) and representative compounds of this invention (compounds 3-9) are presented in Tables 1-2: […]

Sequence of Escherichia coli RNAP (P0A800 whole entry, the tested form may be a part): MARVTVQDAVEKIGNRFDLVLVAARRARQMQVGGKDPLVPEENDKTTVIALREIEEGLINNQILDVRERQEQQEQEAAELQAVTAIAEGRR
Sequence of Escherichia coli RNAP (P00579 whole entry, further chain, the tested form may be a part): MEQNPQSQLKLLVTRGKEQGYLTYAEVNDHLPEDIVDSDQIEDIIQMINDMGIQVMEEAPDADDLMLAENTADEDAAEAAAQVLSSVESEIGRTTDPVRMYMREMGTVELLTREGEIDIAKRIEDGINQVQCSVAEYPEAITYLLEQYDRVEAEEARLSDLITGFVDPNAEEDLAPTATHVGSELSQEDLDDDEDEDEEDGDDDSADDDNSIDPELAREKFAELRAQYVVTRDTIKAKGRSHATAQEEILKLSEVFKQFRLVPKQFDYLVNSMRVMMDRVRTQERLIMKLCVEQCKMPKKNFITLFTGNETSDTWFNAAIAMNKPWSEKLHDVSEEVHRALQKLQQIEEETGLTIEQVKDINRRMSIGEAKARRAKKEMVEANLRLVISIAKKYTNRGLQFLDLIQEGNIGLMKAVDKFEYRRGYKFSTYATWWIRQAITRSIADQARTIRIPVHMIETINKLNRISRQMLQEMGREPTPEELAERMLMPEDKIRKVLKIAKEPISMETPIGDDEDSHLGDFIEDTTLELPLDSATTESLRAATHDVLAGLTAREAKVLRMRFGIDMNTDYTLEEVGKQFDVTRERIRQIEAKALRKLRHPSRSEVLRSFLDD
Sequence of Escherichia coli RNAP (P0A8V2 whole entry, the tested form may be a part): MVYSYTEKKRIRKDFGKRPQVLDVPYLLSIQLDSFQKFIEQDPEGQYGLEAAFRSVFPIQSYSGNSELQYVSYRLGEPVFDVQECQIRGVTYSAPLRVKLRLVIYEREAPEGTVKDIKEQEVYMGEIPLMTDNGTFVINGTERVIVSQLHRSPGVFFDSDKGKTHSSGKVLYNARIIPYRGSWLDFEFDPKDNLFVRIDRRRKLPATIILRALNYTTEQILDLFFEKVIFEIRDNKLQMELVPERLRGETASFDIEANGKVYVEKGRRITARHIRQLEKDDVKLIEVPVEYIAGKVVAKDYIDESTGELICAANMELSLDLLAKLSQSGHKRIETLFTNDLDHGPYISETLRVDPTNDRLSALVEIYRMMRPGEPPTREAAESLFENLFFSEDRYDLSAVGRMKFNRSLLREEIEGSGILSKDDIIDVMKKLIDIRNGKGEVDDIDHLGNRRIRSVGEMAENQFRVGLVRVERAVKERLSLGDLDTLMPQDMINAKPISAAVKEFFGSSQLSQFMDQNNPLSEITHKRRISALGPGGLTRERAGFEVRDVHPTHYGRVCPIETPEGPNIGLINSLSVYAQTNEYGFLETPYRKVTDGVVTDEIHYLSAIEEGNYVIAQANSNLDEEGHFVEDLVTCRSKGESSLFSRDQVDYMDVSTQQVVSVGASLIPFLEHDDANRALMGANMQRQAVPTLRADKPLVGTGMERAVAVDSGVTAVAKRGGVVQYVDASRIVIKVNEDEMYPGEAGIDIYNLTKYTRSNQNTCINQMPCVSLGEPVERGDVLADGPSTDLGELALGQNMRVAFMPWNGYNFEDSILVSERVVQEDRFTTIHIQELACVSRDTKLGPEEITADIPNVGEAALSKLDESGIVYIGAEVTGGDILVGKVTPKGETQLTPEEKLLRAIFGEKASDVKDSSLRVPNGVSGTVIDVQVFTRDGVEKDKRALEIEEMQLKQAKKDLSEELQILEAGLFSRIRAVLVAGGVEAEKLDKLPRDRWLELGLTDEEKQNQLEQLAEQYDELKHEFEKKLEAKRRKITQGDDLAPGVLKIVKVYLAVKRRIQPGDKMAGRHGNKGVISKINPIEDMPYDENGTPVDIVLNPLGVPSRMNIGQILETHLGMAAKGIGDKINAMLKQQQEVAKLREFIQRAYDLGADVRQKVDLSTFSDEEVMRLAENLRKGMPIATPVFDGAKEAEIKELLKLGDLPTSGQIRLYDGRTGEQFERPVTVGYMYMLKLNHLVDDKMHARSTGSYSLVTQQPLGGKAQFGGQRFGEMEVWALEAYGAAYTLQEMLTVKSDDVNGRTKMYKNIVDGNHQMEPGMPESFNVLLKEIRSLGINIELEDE
Sequence of Escherichia coli RNAP (P0A8T7 whole entry, the tested form may be a part): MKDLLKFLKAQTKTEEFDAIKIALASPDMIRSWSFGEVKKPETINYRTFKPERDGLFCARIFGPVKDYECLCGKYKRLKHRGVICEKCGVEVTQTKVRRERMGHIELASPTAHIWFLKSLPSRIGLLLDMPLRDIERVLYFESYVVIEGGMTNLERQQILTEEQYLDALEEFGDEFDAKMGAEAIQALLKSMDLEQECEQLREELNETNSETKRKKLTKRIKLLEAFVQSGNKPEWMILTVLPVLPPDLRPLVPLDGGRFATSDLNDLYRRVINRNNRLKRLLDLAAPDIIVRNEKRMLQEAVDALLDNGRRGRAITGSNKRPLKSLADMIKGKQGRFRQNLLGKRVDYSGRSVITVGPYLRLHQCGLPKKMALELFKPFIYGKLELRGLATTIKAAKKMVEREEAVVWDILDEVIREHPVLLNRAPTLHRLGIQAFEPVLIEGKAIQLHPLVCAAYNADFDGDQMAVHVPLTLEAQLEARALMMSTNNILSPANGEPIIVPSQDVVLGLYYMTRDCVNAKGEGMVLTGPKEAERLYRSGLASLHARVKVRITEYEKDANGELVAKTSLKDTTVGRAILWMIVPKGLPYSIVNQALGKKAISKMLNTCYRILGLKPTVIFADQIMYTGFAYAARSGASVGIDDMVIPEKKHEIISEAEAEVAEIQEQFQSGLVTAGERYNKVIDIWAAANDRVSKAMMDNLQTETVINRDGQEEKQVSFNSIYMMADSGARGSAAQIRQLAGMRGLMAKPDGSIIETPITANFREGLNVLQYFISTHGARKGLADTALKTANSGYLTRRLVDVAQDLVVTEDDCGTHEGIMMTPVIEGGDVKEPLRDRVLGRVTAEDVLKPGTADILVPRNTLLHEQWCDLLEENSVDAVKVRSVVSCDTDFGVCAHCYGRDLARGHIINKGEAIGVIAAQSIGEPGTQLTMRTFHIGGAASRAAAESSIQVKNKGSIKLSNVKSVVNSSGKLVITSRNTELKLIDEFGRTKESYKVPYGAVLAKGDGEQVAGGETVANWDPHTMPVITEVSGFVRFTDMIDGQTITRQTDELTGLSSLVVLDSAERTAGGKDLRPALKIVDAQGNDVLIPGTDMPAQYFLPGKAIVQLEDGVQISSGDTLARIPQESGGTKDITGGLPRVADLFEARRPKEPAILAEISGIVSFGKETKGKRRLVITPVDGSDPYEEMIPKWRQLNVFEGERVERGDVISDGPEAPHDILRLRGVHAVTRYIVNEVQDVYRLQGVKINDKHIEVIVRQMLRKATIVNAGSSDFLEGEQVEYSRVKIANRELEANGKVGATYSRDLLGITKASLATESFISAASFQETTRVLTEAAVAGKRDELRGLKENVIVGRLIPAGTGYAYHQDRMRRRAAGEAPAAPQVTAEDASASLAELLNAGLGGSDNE
Sequence of Escherichia coli RNAP (P0A7Z4 whole entry, further chain, the tested form may be a part): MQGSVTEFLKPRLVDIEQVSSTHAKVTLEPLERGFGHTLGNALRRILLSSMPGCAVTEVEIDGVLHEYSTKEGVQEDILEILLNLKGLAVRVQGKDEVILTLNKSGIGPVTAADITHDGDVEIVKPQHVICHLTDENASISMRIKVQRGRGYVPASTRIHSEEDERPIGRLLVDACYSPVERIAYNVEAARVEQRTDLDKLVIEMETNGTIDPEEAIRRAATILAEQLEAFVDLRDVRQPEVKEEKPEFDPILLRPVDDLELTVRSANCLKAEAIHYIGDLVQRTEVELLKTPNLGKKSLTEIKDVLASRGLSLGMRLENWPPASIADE

Row | SMILES | cross-resistance of Sal-resistant mutants to the compound (Sal-resistant mutants) | IC50 (human RNAP I/II/III) [µM] | MIC50 [1] [µg/mL] | MIC50 [2] [µg/mL] | antibacterial activity ([2]; in words, refers to Table 2) | IC50 (Escherichia coli RNAP) [µM] | RNAP-inhibitory activity (Escherichia coli RNAP; in words, refers to Table 1) | MIC50 Vero E6 ATCC CRL1586 (Vero E6 ATCC CRL1586) [µg/mL]
1 | ONC(=Nc1ccccc1)c1cccc(C(F)(F)F)c1 [CBR703] | not cross-resistant | – | – | – | – | – | – | –
2 | CC[C@H](C)[C@H]1NC(=O)[C@@H](NC(=O)[C@H](C)[C@H](O)C(C)C)[C@@H](C)OC(=O)[C@@H]2COC(=O)CNC(=O)/C=C/[C@](O)(CBr)[C@@H](C)Oc3ccc(cc3)[C@H](NC1=O)C(=O)N(C)[C@@H](Cc1ccccc1)C(=O)N[C@H]([C@@H](C)O)C(=O)N2 [Sal-Br (3)] ({Pentanoyl(2R-Me,3R-OH,4-Me)}-T[d(aIle)][X1][NMeF][d(aThr)]S; ester 1-C; linker 3-6 via G) | – | > 100 | 1.56 (≈ 1.42 µM) | 0.049 (≈ 0.0445 µM) | essentially full | 3 | essentially full | >100
3 | CC[C@H](C)[C@H]1NC(=O)[C@@H](NC(=O)[C@H](C)[C@H](O)C(C)C)[C@@H](C)OC(=O)[C@@H]2COC(=O)CNC(=O)/C=C/[C@](O)(CNCCCNC(=O)OC(C)(C)C)[C@@H](C)Oc3ccc(cc3)[C@H](NC1=O)C(=O)N(C)[C@@H](Cc1ccccc1)C(=O)N[C@H]([C@@H](C)O)C(=O)N2 [Sal-NH(CH2)3NHBoc (7)] ({Pentanoyl(2R-Me,3R-OH,4-Me)}-T[d(aIle)][X5][NMeF][d(aThr)]S; ester 1-C; linker 3-6 via G) | – | – | 100 (≈ 83.7 µM) | 1.56 (≈ 1.31 µM) | – | 0.6 | – | –
4 | CC[C@H](C)[C@H]1NC(=O)[C@@H](NC(=O)[C@H](C)[C@H](O)C(C)C)[C@@H](C)OC(=O)[C@@H]2COC(=O)CNC(=O)/C=C/[C@](O)(CNCCCCCCNC(=O)OC(C)(C)C)[C@@H](C)Oc3ccc(cc3)[C@H](NC1=O)C(=O)N(C)[C@@H](Cc1ccccc1)C(=O)N[C@H]([C@@H](C)O)C(=O)N2 [Sal-NH(CH2)6NHBoc (9)] ({Pentanoyl(2R-Me,3R-OH,4-Me)}-T[d(aIle)][X4][NMeF][d(aThr)]S; ester 1-C; linker 3-6 via G) | – | – | 25 (≈ 20.2 µM) | 0.78 (≈ 0.631 µM) | – | 1 | – | –
5 | CCCCOC[C@@]1(O)/C=C/C(=O)NCC(=O)OC[C@@H]2NC(=O)[C@@H]([C@@H](C)O)NC(=O)[C@H](Cc3ccccc3)N(C)C(=O)[C@@H](NC(=O)[C@@H]([C@@H](C)CC)NC(=O)[C@@H](NC(=O)[C@H](C)[C@H](O)C(C)C)[C@@H](C)OC2=O)c2ccc(cc2)O[C@@H]1C [Sal-OBu A (5A)] ({Pentanoyl(2R-Me,3R-OH,4-Me)}-T[d(aIle)][X2][NMeF][d(aThr)]S; ester 1-C; linker 3-6 via G) | – | – | 12.5 (≈ 11.4 µM) | 1.56 (≈ 1.43 µM) | – | 6 | – | –
